Source: PubChem BioAssay (NCI)
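Cells were grown in 96-well plates and exposed to each compound for 48 hours at five concentrations; endpoints were interpolated linearly between bracketing concentrations, or set to the highest concentration if not reached. At the GI50, growth is halved. The concentration for full growth arrest is given as TGI.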

Key:
Test in all cases: NCI-60 cell line screen, 48 h
DU-145 prostate = system: DU-145 prostate
HS 578T breast = system: HS 578T breast
OVCAR-8 ovarian = system: OVCAR-8 ovarian
UACC-257 melanoma = system: UACC-257 melanoma
NCI-H23 lung = system: NCI-H23 lung
RPMI-8226 leukemia = system: RPMI-8226 leukemia
UACC-62 melanoma = system: UACC-62 melanoma
A549 NSCLC = system: A549 NSCLC
PC-3 prostate = system: PC-3 prostate
HCT-116 colon = system: HCT-116 colon
SN12C renal = system: SN12C renal
M14 melanoma = system: M14 melanoma
786-0 renal = system: 786-0 renal
MOLT-4 leukemia = system: MOLT-4 leukemia
SR leukemia = system: SR leukemia
SF-268 CNS = system: SF-268 CNS
SNB-19 CNS = system: SNB-19 CNS
NCI-H522 lung = system: NCI-H522 lung
MDA-MB-231 breast = system: MDA-MB-231 breast
A498 renal = system: A498 renal
RXF 393 renal = system: RXF 393 renal
UO-31 renal = system: UO-31 renal
LOX IMVI melanoma = system: LOX IMVI melanoma
IGROV1 ovarian = system: IGROV1 ovarian
SF-295 CNS = system: SF-295 CNS
COLO 205 colon = system: COLO 205 colon
SF-539 CNS = system: SF-539 CNS
HL-60(TB) leukemia = system: HL-60(TB) leukemia
HCT-15 colon = system: HCT-15 colon
SK-MEL-5 melanoma = system: SK-MEL-5 melanoma
HCC-2998 colon = system: HCC-2998 colon
MCF7 breast = system: MCF7 breast
HOP-62 NSCLC = system: HOP-62 NSCLC
SNB-75 CNS = system: SNB-75 CNS
NCI-H460 lung = system: NCI-H460 lung
SK-MEL-2 melanoma = system: SK-MEL-2 melanoma
HOP-92 NSCLC = system: HOP-92 NSCLC
MDA-MB-435 = system: MDA-MB-435
U251 CNS = system: U251 CNS
EKVX NSCLC = system: EKVX NSCLC
HT29 colon = system: HT29 colon
NCI-H226 lung = system: NCI-H226 lung
NCI/ADR-RES ovarian = system: NCI/ADR-RES ovarian
OVCAR-5 ovarian = system: OVCAR-5 ovarian
OVCAR-3 ovarian = system: OVCAR-3 ovarian
ACHN renal = system: ACHN renal
CCRF-CEM leukemia = system: CCRF-CEM leukemia
MALME-3M melanoma = system: MALME-3M melanoma
BT-549 breast = system: BT-549 breast
SW-620 colon = system: SW-620 colon
TK-10 renal = system: TK-10 renal
SK-MEL-28 melanoma = system: SK-MEL-28 melanoma
KM12 colon = system: KM12 colon
SK-OV-3 ovarian = system: SK-OV-3 ovarian
OVCAR-4 ovarian = system: OVCAR-4 ovarian
CAKI-1 renal = system: CAKI-1 renal
K-562 leukemia = system: K-562 leukemia
T-47D breast = system: T-47D breast

N=C(N)c1ccc(-c2ccc(-c3cncc4ccccc34)s2)s1
GI50 (DU-145 prostate): 1550 nM | TGI (DU-145 prostate): 3000 nM | GI50 (HS 578T breast): 2220 nM | TGI (HS 578T breast): 4750 nM | GI50 (OVCAR-8 ovarian): 1830 nM | TGI (OVCAR-8 ovarian): 4400 nM | GI50 (UACC-257 melanoma): 2470 nM | TGI (UACC-257 melanoma): 5230 nM

O=C(CCN1CCCC1)Nc1ccc2c(NCCc3ccccc3)c3ccccc3nc2c1
GI50 (DU-145 prostate): 367 nM | TGI (DU-145 prostate): 1360 nM | GI50 (NCI-H23 lung): 374 nM | TGI (NCI-H23 lung): 1390 nM | GI50 (RPMI-8226 leukemia): 320 nM | TGI (RPMI-8226 leukemia): 1150 nM | GI50 (UACC-62 melanoma): 316 nM | TGI (UACC-62 melanoma): 1130 nM | GI50 (A549 NSCLC): 334 nM | TGI (A549 NSCLC): 1700 nM | GI50 (PC-3 prostate): 406 nM | TGI (PC-3 prostate): 1550 nM | GI50 (HCT-116 colon): 354 nM | TGI (HCT-116 colon): 1380 nM | GI50 (SN12C renal): 358 nM | TGI (SN12C renal): 1450 nM | GI50 (M14 melanoma): 500 nM | TGI (M14 melanoma): 1810 nM | GI50 (786-0 renal): 819 nM | TGI (786-0 renal): 2200 nM | GI50 (MOLT-4 leukemia): 296 nM | TGI (MOLT-4 leukemia): 1560 nM | GI50 (SR leukemia): 171 nM | TGI (SR leukemia): 1560 nM | GI50 (SF-268 CNS): 481 nM | TGI (SF-268 CNS): 1910 nM | GI50 (SNB-19 CNS): 385 nM | TGI (SNB-19 CNS): 1610 nM | GI50 (NCI-H522 lung): 308 nM | TGI (NCI-H522 lung): 1270 nM | GI50 (MDA-MB-231 breast): 452 nM | TGI (MDA-MB-231 breast): 1820 nM | GI50 (A498 renal): 422 nM | TGI (A498 renal): 1800 nM | GI50 (RXF 393 renal): 510 nM | TGI (RXF 393 renal): 1750 nM | GI50 (UO-31 renal): 1490 nM | TGI (UO-31 renal): 3690 nM | GI50 (LOX IMVI melanoma): 305 nM | TGI (LOX IMVI melanoma): 1220 nM | GI50 (IGROV1 ovarian): 366 nM | TGI (IGROV1 ovarian): 1630 nM | GI50 (SF-295 CNS): 381 nM | TGI (SF-295 CNS): 1530 nM | GI50 (COLO 205 colon): 297 nM | TGI (COLO 205 colon): 1190 nM | GI50 (SF-539 CNS): 435 nM | TGI (SF-539 CNS): 1550 nM | GI50 (HL-60(TB) leukemia): 389 nM | TGI (HL-60(TB) leukemia): 1670 nM | GI50 (HCT-15 colon): 1730 nM | TGI (HCT-15 colon): 4850 nM | GI50 (SK-MEL-5 melanoma): 1270 nM | TGI (SK-MEL-5 melanoma): 2550 nM | GI50 (HCC-2998 colon): 510 nM | TGI (HCC-2998 colon): 1980 nM | GI50 (MCF7 breast): 305 nM | TGI (MCF7 breast): 1140 nM | GI50 (HOP-62 NSCLC): 389 nM | TGI (HOP-62 NSCLC): 1760 nM | GI50 (SNB-75 CNS): 453 nM | TGI (SNB-75 CNS): 1700 nM | GI50 (NCI-H460 lung): 296 nM | TGI (NCI-H460 lung): 1050 nM | GI50 (SK-MEL-2 melanoma): 463 nM | TGI (SK-MEL-2 melanoma): 1630 nM | GI50 (HOP-92 NSCLC): 332 nM | TGI (HOP-92 NSCLC): 1510 nM | GI50 (MDA-MB-435): 416 nM | TGI (MDA-MB-435): 1520 nM | GI50 (U251 CNS): 329 nM | TGI (U251 CNS): 1550 nM | GI50 (EKVX NSCLC): 463 nM | TGI (EKVX NSCLC): 2160 nM | GI50 (HT29 colon): 368 nM | TGI (HT29 colon): 1750 nM | GI50 (NCI-H226 lung): 374 nM | TGI (NCI-H226 lung): 1950 nM | GI50 (NCI/ADR-RES ovarian): 12000 nM | TGI (NCI/ADR-RES ovarian): > 62900 nM | GI50 (OVCAR-5 ovarian): 506 nM | TGI (OVCAR-5 ovarian): 2130 nM | GI50 (OVCAR-3 ovarian): 454 nM | TGI (OVCAR-3 ovarian): 1730 nM | GI50 (ACHN renal): 510 nM | TGI (ACHN renal): 2020 nM | GI50 (CCRF-CEM leukemia): 311 nM | TGI (CCRF-CEM leukemia): 1770 nM | GI50 (MALME-3M melanoma): 384 nM | TGI (MALME-3M melanoma): 1450 nM | GI50 (BT-549 breast): 1190 nM | TGI (BT-549 breast): 2660 nM | GI50 (SW-620 colon): 300 nM | TGI (SW-620 colon): 1360 nM | GI50 (TK-10 renal): 1060 nM | TGI (TK-10 renal): 2960 nM | GI50 (SK-MEL-28 melanoma): 599 nM | TGI (SK-MEL-28 melanoma): 1870 nM | GI50 (KM12 colon): 466 nM | TGI (KM12 colon): 1800 nM | GI50 (OVCAR-8 ovarian): 532 nM | TGI (OVCAR-8 ovarian): 2720 nM | GI50 (UACC-257 melanoma): 1020 nM | TGI (UACC-257 melanoma): 2710 nM | GI50 (SK-OV-3 ovarian): 422 nM | TGI (SK-OV-3 ovarian): 2070 nM | GI50 (OVCAR-4 ovarian): 326 nM | TGI (OVCAR-4 ovarian): 1190 nM | GI50 (CAKI-1 renal): 1500 nM | TGI (CAKI-1 renal): 5680 nM

COc1cc(-c2nc3cc(Cl)c(Cl)cc3[nH]2)ccc1OCC(=O)N=Nc1c(O)[nH]c2ccc(Cl)cc12
GI50 (NCI-H23 lung): 489 nM | TGI (NCI-H23 lung): 3090 nM | GI50 (UACC-62 melanoma): 1200 nM | TGI (UACC-62 melanoma): 2540 nM | GI50 (HCT-116 colon): 284 nM | TGI (HCT-116 colon): 1200 nM | GI50 (MOLT-4 leukemia): 321 nM | TGI (MOLT-4 leukemia): 1590 nM | GI50 (SR leukemia): 252 nM | TGI (SR leukemia): 1390 nM | GI50 (SNB-19 CNS): 447 nM | TGI (SNB-19 CNS): 3330 nM | GI50 (NCI-H522 lung): 386 nM | TGI (NCI-H522 lung): 2080 nM | GI50 (MDA-MB-231 breast): 538 nM | TGI (MDA-MB-231 breast): 1950 nM | GI50 (RXF 393 renal): 1000 nM | TGI (RXF 393 renal): 3400 nM | GI50 (UO-31 renal): > 100000 nM | TGI (UO-31 renal): > 100000 nM | GI50 (LOX IMVI melanoma): 233 nM | TGI (LOX IMVI melanoma): 738 nM | GI50 (COLO 205 colon): 344 nM | TGI (COLO 205 colon): 1220 nM | GI50 (HCT-15 colon): > 100000 nM | TGI (HCT-15 colon): > 100000 nM | GI50 (K-562 leukemia): 284 nM | GI50 (T-47D breast): 381 nM | TGI (T-47D breast): 2370 nM | GI50 (HOP-62 NSCLC): 455 nM | TGI (HOP-62 NSCLC): 1980 nM | GI50 (SNB-75 CNS): 1000 nM | TGI (SNB-75 CNS): 3930 nM | GI50 (SK-MEL-2 melanoma): 1280 nM | TGI (SK-MEL-2 melanoma): 2930 nM | GI50 (U251 CNS): 203 nM | TGI (U251 CNS): 565 nM | GI50 (EKVX NSCLC): 1700 nM | TGI (EKVX NSCLC): > 100000 nM | GI50 (NCI/ADR-RES ovarian): > 100000 nM | TGI (NCI/ADR-RES ovarian): > 100000 nM | GI50 (OVCAR-3 ovarian): 446 nM | TGI (OVCAR-3 ovarian): 1570 nM | GI50 (HS 578T breast): 1040 nM | TGI (HS 578T breast): 3710 nM | GI50 (ACHN renal): 1690 nM | TGI (ACHN renal): > 100000 nM | GI50 (CCRF-CEM leukemia): 280 nM | TGI (CCRF-CEM leukemia): 5270 nM | GI50 (TK-10 renal): 2530 nM | TGI (TK-10 renal): > 100000 nM | GI50 (SK-OV-3 ovarian): 1830 nM | TGI (SK-OV-3 ovarian): 4570 nM | GI50 (OVCAR-4 ovarian): 403 nM | TGI (OVCAR-4 ovarian): > 100000 nM
